# Laboratory results taken from patent US20230321064A1, “Products for Treating the JNCL Disease” (Beyond Batten Disease Foundation, priority 2020, published 2023).
# Like-named read-outs stand apart in the source and are kept apart here.
# Columns and labels:
# Cln3^Δex7-8 mice = assay: Lysosomal storage in cerebellum (SCMAS staining); type: in vivo, mouse; conditions: 12 months of age
# Procedure: Cln3^Δex7-8 mice were obtained from the Jackson Laboratory. Control (C57BL/6J) and Cln3^Δex7-8 mice were housed 3-4 per cage in a room with a 12-h light/12-h dark cycle. Food and water were provided ad libitum. All mice used in this study were analyzed at 8 and 12 months of age and were littermates produced by crossing heterozygous Cln3^Δex7-8 mice. Only males were used for this analysis. Investigators were blinded when analyzing the data, and no randomization was necessary.
# For oral administration, Trehalose was dissolved in drinking water to a final concentration of 2% and changed twice a week. […]
# Serotec, Cat. No. MCA1957), GFAP (DAKO, Cat. No. Z0334), Subunit C of mitochondrial ATP synthase (SCMAS; Abcam, Cat. No. ab181243), or cleaved caspase 3 (Asp175) (Cell Signaling, Cat. No. 9661S) followed by either rabbit anti-rat (VectorLab) or swine anti-rabbit (DAKO) secondary antibodies, and immunoreactivity detected with Vectastain ABC (avidin-biotin) kit (Vector) and diaminobenzidine as a chromogen.
# Non-overlapping images were captured, on three consecutive sections, through each region of interest. […] For quantification of storage and inflammation, images were analyzed using ImageJ analysis software (NIH), using an appropriate threshold that selected the foreground immunoreactivity above background. […]
# [1] = Blood PK of Trehalose after IV and PO administration, with and without PO Miglustat (LC-MS/MS); type: in vivo, mouse; conditions: for Cmax / Tmax / AUC(0-inf): male, C57BL6/N, mouse, whole blood; for AUC(0-inf): read-out: AUC0-inf of Trehalose in blood (converted)
# Procedure: (§1) LC-MS/MS bioanalytical methodologies were developed for the analysis of Trehalose, Miglustat and glucose in mouse whole blood and brain.
# Blood samples were prepared as follows; 20 μL of whole blood was transferred to a 96 wellplate and diluted 1:1 with sterile distilled water. Samples were protein precipitated by addition of 160 μL of 2.5% of trichloroacetic acid (TCA). At the time of analysis, 1 volume of acetonitrile containing an internal standard was added in order to match the initial chromatography conditions, samples were centrifuged at 4350 rpm for 10 min at ambient temperature, and the resultant supernatant transferred for analysis on the LC-MS/MS.
# (§2) The purpose of this example was to compare the blood PK of unlabelled high doses of Trehalose after IV and PO administration, with and without Miglustat PO dosing. For the IV comparison, Trehalose was dosed as an IV bolus dose 15 min after PO dosing of Miglustat. For the PO comparison Miglustat was dosed simultaneously with Trehalose. Fasted male C57BL6/N mice were dosed as detailed in Table III:
# Blood samples were collected at pre-dose, 10, 20, 30, 60, 120 and 180 min post-dose for group 1 and 2 and at pre-dose, 15, 30, 45, 60, 120 and 180 min post-dose for group 3 and 4.
# [2] = at 20° C.; cited from earlier work
# [3] = Tissue concentrations of Trehalose (liver, brain) by LC-MS/MS; type: in vivo, mouse
# Procedure: as §1
# Tissue samples were homogenized in 8 volumes of sterile distilled water and 1 volume of TCA (20% in water) to generate a final concentration of 2% TCA, homogenates were centrifuged at 13000 rpm for 15 min at 4° C. and the supernatant transferred to a fresh plate. At the time of analysis, 1 volume of acetonitrile containing an internal standard was added in order to match the initial chromatography conditions, samples were centrifuged at 4350 rpm for 10 min at ambient temperature, and the resultant supernatant transferred for analysis on the LC-MS/MS.
# as §2, with “III: […]” for “III:”
# [4] = 1 g/kg trehalose IV + 150 mg/kg miglustat PO
# [5] = 10 g/kg trehalose PO + 150 mg/kg miglustat PO
# [6] = 1 g/kg trehalose IV + 150 mg/kg miglustat PO, 180 min post-dose
# [7] = 1 g/kg trehalose IV, 180 min post-dose
smiles,measurement,setting,value
"OC[C@H]1O[C@H](O[C@H]2O[C@H](CO)[C@@H](O)[C@H](O)[C@H]2O)[C@H](O)[C@@H](O)[C@@H]1O [Trehalose, α-D-glucopyranosyl α-D-glucopyranoside dihydrate]",increased storage in the cerebellum (SCMAS staining),Cln3^Δex7-8 mice,partially reduces this increased storage
same,Trehalose fold-change with miglustat dosing,[1]; 1 g/kg trehalose IV + 150 mg/kg miglustat PO vs 1 g/kg IV alone,1.5
same,increase of measured AUC of Trehalose by combined PO Miglustat,[1]; Trehalose via either IV or PO administration,> 1.5 fold
same,detection of Trehalose after oral administration,"[1]; low doses such as 1 g/kg, oral",cannot be detected
same,Cmax,[1]; 1 g/kg trehalose IV,3690 ± 153 µM
same,Tmax,[1]; 1 g/kg trehalose IV,20 min
same,Cmax,[1]; [4],5490 ± 873 µM
same,Tmax,[1]; [4],20 min
same,AUC(0-inf),[1]; [4],2990 µM·h
same,AUC(0-inf),[1]; 1 g/kg trehalose IV,1960 µM·h
same,Cmax,[1]; [5],189 ± 43.9 µM
same,Tmax,[1]; [5],15 min
same,AUC(0-inf),[1]; [5],307 µM·h
same,Solubility,[2],Trehalose: 68.9 g/100 g H2O at 20 °C
same,"Concentration of Trehalose, Brain L",[3]; [6],10.8 ± 2.0 nmol/g
same,"Concentration of Trehalose, Brain R",[3]; [6],10.5 ± 1.7 nmol/g
same,"Concentration of Trehalose, Liver",[3]; [6],278.6 ± 96.6 nmol/g
same,"Concentration of Trehalose, Brain L",[3]; [7],6.9 ± 1.9 nmol/g
same,"Concentration of Trehalose, Brain R",[3]; [7],7.3 ± 0.9 nmol/g
same,"Concentration of Trehalose, Liver",[3]; [7],167.9 ± 24.6 nmol/g
same,brain exposure of Trehalose,"[3]; IV Trehalose in combination with oral Miglustat, 180 min post-dose",about 10 nmol/g
same,brain exposure of Trehalose,"[3]; IV Trehalose, 180 min post-dose",about 7 nmol/g
same,brain exposure of Trehalose,[3]; PO Trehalose,2.5 nmol/g
